Results on 33 molecules are retold here after patent US12187709B2 (Genentech, Inc., priority 2021, dated 2025).

For orientation: IC50 means the concentration needed to halve the response being measured. Lower therefore signals inhibition by little substance.

One experiment concerns the target c-Cbl (Homo sapiens (Human), UniProt P22681). Kind of experiment: C-Cbl LCK Ub TR-FRET assay (C-cbl Lck HTRF). The format is biochemical. As to the method:
(§1) 6 μL of detection mixture was added to all wells and briefly centrifuged before incubating for 20 min at room temperature. […] IC50 was generated using no LCK as the low control and DMSO as the high control.
Background: TR-FRET usually uses a lanthanide donor and a delayed reading to cut background.

Another experiment addresses Cbl-b (Homo sapiens (Human), UniProt Q13191). Kind of experiment: Cbl-b LCK Ub TR-FRET assay (Cbl-b Lck HTRF). The format is biochemical. The conditions noted are these: for IC50: Cbl-b LCK Ub TR-FRET; for fold-selectivity (Cbl-b over C-cbl): ratio C-cbl Lck HTRF IC50 / Cbl-b Lck HTRF IC50. As to the method:
as §1

Sequence of Cbl-b (Q13191 40-426): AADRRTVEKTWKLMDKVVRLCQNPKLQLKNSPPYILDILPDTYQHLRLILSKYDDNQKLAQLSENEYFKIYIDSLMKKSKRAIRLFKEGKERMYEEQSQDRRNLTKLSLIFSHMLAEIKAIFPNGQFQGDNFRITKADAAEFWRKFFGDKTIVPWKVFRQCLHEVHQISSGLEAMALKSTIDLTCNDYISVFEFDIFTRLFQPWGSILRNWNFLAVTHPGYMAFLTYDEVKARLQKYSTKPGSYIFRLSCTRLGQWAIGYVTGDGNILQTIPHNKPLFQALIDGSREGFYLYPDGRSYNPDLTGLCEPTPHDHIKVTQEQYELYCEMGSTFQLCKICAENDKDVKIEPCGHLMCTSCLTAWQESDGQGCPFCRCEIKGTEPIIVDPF
Sequence of c-Cbl (P22681 47-435): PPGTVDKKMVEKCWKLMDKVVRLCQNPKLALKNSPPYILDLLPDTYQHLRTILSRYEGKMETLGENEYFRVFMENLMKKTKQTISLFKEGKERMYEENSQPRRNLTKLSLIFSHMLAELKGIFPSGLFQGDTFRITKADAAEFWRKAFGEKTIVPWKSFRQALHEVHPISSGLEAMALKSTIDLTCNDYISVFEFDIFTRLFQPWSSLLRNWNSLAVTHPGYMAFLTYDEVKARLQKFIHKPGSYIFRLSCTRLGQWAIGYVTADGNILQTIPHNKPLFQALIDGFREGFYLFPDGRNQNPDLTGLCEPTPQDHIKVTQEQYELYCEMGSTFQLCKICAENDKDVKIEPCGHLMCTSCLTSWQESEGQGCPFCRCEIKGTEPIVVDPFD

Molecule `C[C@H](NC1CCC1)c1cc2c(c(C(F)(F)F)c1)CN(c1cccc(C3(c4nncn4C)CC(F)(F)C3)c1)C2=O` (single isomer, unassigned) [Compound 37] returned an IC50 against c-Cbl of 0.0099 µM. For the same molecule, at Cbl-b, it took 0.0066 µM to reach half-maximal inhibition (IC50) and the “fold-selectivity (Cbl-b over C-cbl)” value is listed as “(1.5x)”.

On to `C[C@@H](NC1CCC1)c1cc2c(c(C(F)(F)F)c1)CN(c1cccc(C3(c4nncn4C)CC(F)(F)C3)c1)C2=O` (single isomer, unassigned) [Compound 38], for which the IC50 at c-Cbl came out at 0.032 µM; against Cbl-b it was 0.011 µM. At Cbl-b, the “fold-selectivity (Cbl-b over C-cbl)” value is recorded as “(2.9x)”.

The molecule `CO[C@H](c1cccc(N2Cc3c(cc(CNC4(C)CCC4)cc3C(F)(F)F)C2=O)c1)c1nncn1C` (single isomer, unassigned) [Compound 42] gave an IC50 against c-Cbl of 0.27 µM. For the same molecule, at Cbl-b, half-maximal inhibition (IC50) was put at 0.18 µM and the “fold-selectivity (Cbl-b over C-cbl)” value is reported as “(1.5x)”.

`CO[C@@H](c1cccc(N2Cc3c(cc(CNC4(C)CCC4)cc3C(F)(F)F)C2=O)c1)c1nncn1C` (single isomer, unassigned) [Compound 43] showed an IC50 on c-Cbl of 0.56 µM. On Cbl-b, 0.47 µM corresponded to half-maximal inhibition (IC50) and the “fold-selectivity (Cbl-b over C-cbl)” value was “(1.2x)”.

For the molecule `Cn1cnnc1[C@@H](OC1CC1)c1cccc(N2Cc3c(cc(CNC4(C)CCC4)cc3C(F)(F)F)C2=O)c1` (single isomer, unassigned) [Compound 44], the IC50 on c-Cbl was determined as 10 µM. On Cbl-b, the IC50 is 4.2 µM and the “fold-selectivity (Cbl-b over C-cbl)” value is given as “(2.4x)”.

For the molecule `Cn1cnnc1[C@H](OC1CC1)c1cccc(N2Cc3c(cc(CNC4(C)CCC4)cc3C(F)(F)F)C2=O)c1` (single isomer, unassigned) [Compound 45], the IC50 against c-Cbl stood at 0.41 µM; on Cbl-b it was 0.29 µM. Also, at Cbl-b, the “fold-selectivity (Cbl-b over C-cbl)” value is recorded as “(1.4x)”.

Consider `Cn1cnnc1[C@@H](OC1CCC1)c1cccc(N2Cc3c(cc(CNC4(C)CCC4)cc3C(F)(F)F)C2=O)c1` (single isomer, unassigned) [Compound 46], for which the IC50 is 20 µM at c-Cbl and at least 20 µM on Cbl-b. In addition, the “fold-selectivity (Cbl-b over C-cbl)” value at Cbl-b is on record as “(1.0x)”.

In turn, `Cn1cnnc1[C@H](c1cccc(N2Cc3c(cc(CNC4(C)CCC4)cc3C(F)(F)F)C2=O)c1)N1CC(F)(F)C1` (single isomer, unassigned) [Compound 56] yielded an IC50 against c-Cbl of 6.7 µM. Further, on Cbl-b, half-maximal inhibition (IC50) was put at 1 µM and the “fold-selectivity (Cbl-b over C-cbl)” value is on record as “(6.7x)”.

In turn, `Cn1cnnc1[C@@H](c1cccc(N2Cc3c(cc(CNC4(C)CCC4)cc3C(F)(F)F)C2=O)c1)N1CC(F)(F)C1` (single isomer, unassigned) [Compound 57] gave an IC50 at c-Cbl of 19 µM. Moreover, at Cbl-b, half-maximal inhibition (IC50) was put at 10 µM and the “fold-selectivity (Cbl-b over C-cbl)” value was “(1.9x)”.

`Cn1cnnc1[C@@]1(c2cccc(N3Cc4c(cc(CNC5(C)CCC5)cc4C(F)(F)F)C3=O)c2)CCC(F)(F)C1` (single isomer, unassigned) [Compound 106] had an IC50 against c-Cbl of 0.081 µM. Besides, at Cbl-b, the IC50 was 0.023 µM and the “fold-selectivity (Cbl-b over C-cbl)” value turned out to be 3.5x.

`Cc1cnnn1[C@H](c1cccc(N2Cc3c(cc(CNC4(C)CCC4)cc3C(F)(F)F)C2=O)c1)C1COC1` (single isomer, unassigned) [Compound 136] gave an IC50 at c-Cbl of 20 µM. Also, on Cbl-b, the IC50 was at least 20 µM and the “fold-selectivity (Cbl-b over C-cbl)” value was found to be 1.0x.

On c-Cbl, `Cn1cnnc1[C@](O)(c1cccc(N2Cc3c(cc(CNC4(C)CCC4)cc3C(F)(F)F)C2=O)c1)C1COC1` (single isomer, unassigned) [Compound 144] had an IC50 of 8.2 µM. Also, at Cbl-b, 4.5 µM corresponded to half-maximal inhibition (IC50) and the “fold-selectivity (Cbl-b over C-cbl)” value came out at 1.6x.

Regarding `Cn1cnnc1[C@@H](c1cccc(N2Cc3c(cc(CNC4(C)CCC4)cc3C(F)(F)F)C2=O)c1)C1(O)COC1` (single isomer, unassigned) [Compound 146], the IC50 against c-Cbl came to 9.2 µM; at Cbl-b it was 4 µM. Also, the “fold-selectivity (Cbl-b over C-cbl)” value on Cbl-b came out at 2.3x.

In turn, `Cn1cnnc1C(F)(c1cccc(N2Cc3c(cc(CNC4(C)CCC4)cc3C(F)(F)F)C2=O)c1)C1COC1` (single isomer, unassigned) [Compound 151] had an IC50 at c-Cbl of 7.9 µM. At Cbl-b, the IC50 stood at 3.8 µM and the “fold-selectivity (Cbl-b over C-cbl)” value amounted to 2.1x.

For the molecule `Cn1cnnc1[C@](O)(c1ccccc1)c1cccc(N2Cc3c(cc(CNC4(C)CCC4)cc3C(F)(F)F)C2=O)c1` (single isomer, unassigned) [Compound 154], on c-Cbl, the IC50 turned out to be 20 µM. Also, on Cbl-b, the IC50 was at least 20 µM and the “fold-selectivity (Cbl-b over C-cbl)” value is reported as 1.0x.

Consider `Cn1cnnc1[C@@](O)(c1ccccc1)c1cccc(N2Cc3c(cc(CNC4(C)CCC4)cc3C(F)(F)F)C2=O)c1` (single isomer, unassigned) [Compound 155], for which half-maximal inhibition against c-Cbl (IC50) was put at 10 µM. Also, on Cbl-b, the IC50 is 10 µM and the “fold-selectivity (Cbl-b over C-cbl)” value stood at 2.0x.

For the molecule `Cn1cnnc1[C@](F)(c1ccccc1)c1cccc(N2Cc3c(cc(CNC4(C)CCC4)cc3C(F)(F)F)C2=O)c1` (single isomer, unassigned) [Compound 156], the IC50 was 18 µM at c-Cbl and 7.7 µM against Cbl-b. On Cbl-b, the “fold-selectivity (Cbl-b over C-cbl)” value was 2.4x.

On to `Cn1cnnc1[C@@](F)(c1ccccc1)c1cccc(N2Cc3c(cc(CNC4(C)CCC4)cc3C(F)(F)F)C2=O)c1` (single isomer, unassigned) [Compound 157], for which, at c-Cbl, inhibition was half-maximal at 20 µM (IC50). Moreover, on Cbl-b, the IC50 was at least 20 µM and the “fold-selectivity (Cbl-b over C-cbl)” value was found to be 1.0 x.

On c-Cbl, `Cn1cnnc1[C@H](c1ccccc1)c1cccc(N2Cc3c(Cl)cc(CNC4(C)CCC4)cc3C2=O)c1` (single isomer, unassigned) [Compound 158] displayed an IC50 of 5 µM. On Cbl-b, the IC50 amounted to 1.4 µM and the “fold-selectivity (Cbl-b over C-cbl)” value stood at 3.6 x.

Regarding `Cn1cnnc1[C@@H](c1ccccc1)c1cccc(N2Cc3c(Cl)cc(CNC4(C)CCC4)cc3C2=O)c1` (single isomer, unassigned) [Compound 159], the IC50 on c-Cbl stood at 20 µM. On Cbl-b, the IC50 is at least 20 µM and the “fold-selectivity (Cbl-b over C-cbl)” value was 1.0x.

At c-Cbl, `Cn1cnnc1[C@]1(c2cccc(N3Cc4c(cc(CNC5(C)CCC5)cc4C(F)(F)F)C3=O)c2)C[C@H]([S@+](C)[O-])C1` (single isomer, unassigned) [Compound 162] displayed an IC50 of 20 µM. Further, on Cbl-b, the IC50 was 9.1 µM and the “fold-selectivity (Cbl-b over C-cbl)” value turned out to be 2.1x.

Molecule `Cn1cnnc1[C@]1(c2cccc(N3Cc4c(cc(CNC5(C)CCC5)cc4C(F)(F)F)C3=O)c2)C[C@@H]([S@@+](C)[O-])C1` (single isomer, unassigned) [Compound 163] registered an IC50 at c-Cbl of 20 µM. In addition, on Cbl-b, the IC50 was at least 20 µM and the “fold-selectivity (Cbl-b over C-cbl)” value worked out at 1.0x.

On c-Cbl, `Cn1cnnc1[C@H](c1cccc(N2Cc3c(cc(CNC4(C)CCC4)cc3C(F)(F)F)C2=O)c1)C1COC1` (single isomer, unassigned) [Compound 165] had an IC50 of 10 µM. Besides, on Cbl-b, the midpoint of inhibition, the IC50, lay at 3.9 µM and the “fold-selectivity (Cbl-b over C-cbl)” value is recorded as 2.3 x.

Turning to `Cn1cnnc1[C@H](c1cccc(N2Cc3c(cc(CNC4(C)CCC4)cc3C(F)(F)F)C2=O)c1)C1CCCCC1` (single isomer, unassigned) [Compound 251], the IC50 at c-Cbl came to 0.89 µM. For the same molecule, on Cbl-b, 0.88 µM corresponded to half-maximal inhibition (IC50) and the “fold-selectivity (Cbl-b over C-cbl)” value worked out at 1.0x.

Molecule `Cn1cnnc1[C@H](CC1CCOCC1)c1cccc(N2Cc3c(cc(CNC4(C)CCC4)cc3C(F)(F)F)C2=O)c1` (single isomer, unassigned) [Compound 252] came in with an IC50 on c-Cbl of 13 µM. For the same molecule, on Cbl-b, 9.1 µM corresponded to half-maximal inhibition (IC50) and the “fold-selectivity (Cbl-b over C-cbl)” value amounted to 1.4x.

As for `Cn1cnnc1[C@@H](c1cccc(N2Cc3c(cc(CNC4(C)CCC4)cc3C(F)(F)F)C2=O)c1)C1CC(OCC(F)F)C1` (single isomer, unassigned) [Compound 261], the values for the IC50 against c-Cbl and against Cbl-b were 4.5 µM and 1.3 µM, respectively. The “fold-selectivity (Cbl-b over C-cbl)” value on Cbl-b is given as 3.5x.

With `CCOC1CC([C@H](c2cccc(N3Cc4c(cc(CNC5(C)CCC5)cc4C(F)(F)F)C3=O)c2)c2nncn2C)C1` (single isomer, unassigned) [Compound 264], the IC50 was at least 20 µM at c-Cbl and 5.1 µM against Cbl-b. For the same molecule, the “fold-selectivity (Cbl-b over C-cbl)” value at Cbl-b is 3.9x.

The molecule `CCOC1CC([C@@H](c2cccc(N3Cc4c(cc(CNC5(C)CCC5)cc4C(F)(F)F)C3=O)c2)c2nncn2C)C1` (single isomer, unassigned) [Compound 266] returned an IC50 against c-Cbl of at least 20 µM. Besides, at Cbl-b, the IC50 amounted to 6.7 µM and the “fold-selectivity (Cbl-b over C-cbl)” value is recorded as 3.0x.

Consider `Cn1cnnc1[C@H](c1cccc(N2Cc3c(Cl)cc(CNC4(C)CCC4)cc3C2=O)c1)C1COC1` (single isomer, unassigned) [Compound 271], for which 4.3 µM corresponded to half-maximal inhibition on c-Cbl (IC50). Moreover, on Cbl-b, the IC50 is 1.8 µM and the “fold-selectivity (Cbl-b over C-cbl)” value was found to be 2.6x.

At c-Cbl, `Cn1cnnc1[C@@H](C[C@H]1COCCO1)c1cccc(N2Cc3c(cc(CNC4(C)CCC4)cc3C(F)(F)F)C2=O)c1` (single isomer, unassigned) [Compound 295] came in with an IC50 of 20 µM. At Cbl-b, the “fold-selectivity (Cbl-b over C-cbl)” value is on record as 1.0x.

`Cn1cnnc1[C@](F)(c1ccccc1)c1cccc(N2Cc3c(Cl)cc(CNC4(C)CCC4)cc3C2=O)c1` (single isomer, unassigned) [Compound 321] registered an IC50 against c-Cbl of 20 µM. At Cbl-b, the IC50 is at least 20 µM and the “fold-selectivity (Cbl-b over C-cbl)” value came to 1.0x.

For `Cn1cnnc1[C@@](F)(c1ccccc1)c1cccc(N2Cc3c(Cl)cc(CNC4(C)CCC4)cc3C2=O)c1` (single isomer, unassigned) [Compound 322], the values for the IC50 against c-Cbl and against Cbl-b were 20 µM and 10 µM, respectively. Moreover, on Cbl-b, the “fold-selectivity (Cbl-b over C-cbl)” value was 2.0x.

Regarding `Cc1cc([C@H](c2nncn2C)C2COC2)cc(N2Cc3c(cc(CNC4(C)CCC4)cc3C(F)(F)F)C2=O)c1` (single isomer, unassigned) [Compound 332], the IC50 against c-Cbl was determined as 20 µM. Further, on Cbl-b, inhibition was half-maximal at 16 µM (IC50) and the “fold-selectivity (Cbl-b over C-cbl)” value is recorded as 1.3x.
